Results from paper PMC3116920, “Mechanisms for the Evolution of a Derived Function in the Ancestral Glucocorticoid Receptor” (PLoS Genetics, 2011).
Substitutions are numbered along the chain they refer to. Read-outs that look alike come from different tables or passages of the source.

How the values were obtained:
[1] = biological target: T1, Leri GR (Leucoraja erinaceus, UniProt Q1KXY4); assay: cell-based; parameters: species or system CHO-K1; Gal4DBD-LBD UAS-driven luciferase reporter transactivation, Dual-Glo read-out
T1 construct: LBD fused to Gal4 DBD in pSG5; CHO-K1 cells with UAS-luciferase
T1 sequence (Q1KXY4 1-317): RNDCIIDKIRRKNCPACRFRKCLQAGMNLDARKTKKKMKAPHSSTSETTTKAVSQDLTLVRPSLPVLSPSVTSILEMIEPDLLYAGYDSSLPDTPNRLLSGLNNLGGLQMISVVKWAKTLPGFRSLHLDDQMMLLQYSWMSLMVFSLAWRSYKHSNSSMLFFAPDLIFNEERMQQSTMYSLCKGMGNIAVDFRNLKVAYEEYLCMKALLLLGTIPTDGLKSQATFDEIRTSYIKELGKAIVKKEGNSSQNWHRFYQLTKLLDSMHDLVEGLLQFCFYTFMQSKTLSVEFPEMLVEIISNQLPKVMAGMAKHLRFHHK
Procedure: LBDs were cloned as fusion proteins into a pSG5-Gal4DBD expression vector (gift of D. Furlow) and cotransfected using Lipofectamine and Plus Reagents (Invitrogen, Carlsbad, CA) with a UAS-driven luciferase reporter gene (pFRluc) into mammalian cell culture (CHO-K1), and grown in phenol red-free α-MEM plus 10% dextran-charcoal-stripped fetal bovine serum (Hyclone, Logan, UT). Cells were incubated with transfection reagents for four hours, after which they were treated with fresh medium; after recovery, cells were treated in triplicate with hormone or vehicle control, and incubated for one day. Reporter expression was measured using Dual-Glo (Promega, Madison, WI) and dose-response relationships analyzed using Prism4 (GraphPad, La Jolla, CA). Site-directed mutagenesis was carried out using QuickChange II (Stratagene, La Jolla, CA) and clones verified by DNA sequencing. Plausible alternate states were defined as non-maximum likelihood amino acid states with posterior probability >0.20; we reasoned that residues that are present in one or more extant high-sensitivity receptors are the most likely to increase receptor sensitivity, whereas those that are present only in low-sensitivity receptors are unlikely to confer high sensitivity. Each such alternate state was introduced singly into the ML AncGR1.1, and the experimental characterization was repeated. We used a luciferase reporter gene expression assay to characterize the sensitivity of each LBD to four major corticosteroids present in elasmobranchs – 11-deoxycorticosterone (DOC), corticosterone, 1alpha-hydroxycorticosterone, and 11-dehydrocorticosterone, [35]. […] All hormone-activated cartilaginous fish GRs were most sensitive to DOC and corticosterone. The receptors had EC50 values (the hormone concentration required to elicit half-maximal activation) for these steroids in the 10^−8 to 10^−6 M range (Figure 2, Table S1), typical of the EC50s of bony fish GRs for glucocorticoids but two to four orders of magnitude greater than AncCR or the MRs of bony vertebrates. […]

[2] = biological target: T2, AncCR (synthetic construct, UniProt Z9R9E8A6B0, V46A/S74C/R119H, form not given); assay: luciferase reporter gene activation (Gal4DBD-LBD); type: cell-based; details: CHO-K1 cells, agonist, one day, triplicate; error is SE
T2 construct: LBD fused to Gal4 DBD in pSG5; CHO-K1 cells with UAS-luciferase
T2 sequence (Z9R9E8A6B0 4-249 V46A/S74C/R119H): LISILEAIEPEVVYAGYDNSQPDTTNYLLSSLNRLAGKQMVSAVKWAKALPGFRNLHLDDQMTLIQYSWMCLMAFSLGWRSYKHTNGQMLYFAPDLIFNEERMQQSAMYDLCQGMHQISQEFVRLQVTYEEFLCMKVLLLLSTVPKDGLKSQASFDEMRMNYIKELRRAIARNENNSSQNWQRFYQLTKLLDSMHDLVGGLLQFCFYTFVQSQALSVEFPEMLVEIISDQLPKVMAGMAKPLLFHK
Text: (§1) luciferase reporter gene activation (Gal4DBD-LBD) on AncCR

[3] = biological target: T3, AncCR (synthetic construct, UniProt Z9R9E8A6B0, S74C/Q214E, form not given); assay: luciferase reporter gene activation (Gal4DBD-LBD); type: cell-based; details: CHO-K1 cells, agonist, one day, triplicate; error is SE
T3 construct: LBD fused to Gal4 DBD in pSG5; CHO-K1 cells with UAS-luciferase
T3 sequence (Z9R9E8A6B0 4-249 S74C/Q214E): T2 sequence (Z9R9E8A6B0 4-249 V46A/S74C/R119H) with A43V, H116R, Q211E
Text: as §1

[4] = biological target: T4, AncCR (synthetic construct, UniProt Z9R9E8A6B0, S74C, form not given); assay: luciferase reporter gene activation (Gal4DBD-LBD); type: cell-based; details: CHO-K1 cells, agonist, one day, triplicate; error is SE
T4 construct: LBD fused to Gal4 DBD in pSG5; CHO-K1 cells with UAS-luciferase
T4 sequence (Z9R9E8A6B0 4-249 S74C): T2 sequence (Z9R9E8A6B0 4-249 V46A/S74C/R119H) with A43V, H116R
Text: as §1

[5] = biological target: T5, AncCR (synthetic construct, UniProt Z9R9E8A6B0, S74C/Q116K, form not given); assay: luciferase reporter gene activation (Gal4DBD-LBD); type: cell-based; details: CHO-K1 cells, agonist, one day, triplicate; error is SE
T5 construct: LBD fused to Gal4 DBD in pSG5; CHO-K1 cells with UAS-luciferase
T5 sequence (Z9R9E8A6B0 4-249 S74C/Q116K): T2 sequence (Z9R9E8A6B0 4-249 V46A/S74C/R119H) with A43V, Q113K, H116R
Text: as §1

[6] = biological target: T6, AncCR (synthetic construct, UniProt Z9R9E8A6B0); assay: luciferase reporter gene activation (Gal4DBD-LBD); type: cell-based; details: CHO-K1 cells, agonist, one day, triplicate; error is SE
T6 construct: LBD fused to Gal4 DBD in pSG5; CHO-K1 cells with UAS-luciferase
T6 sequence (Z9R9E8A6B0 4-249): T2 sequence (Z9R9E8A6B0 4-249 V46A/S74C/R119H) with A43V, C71S, H116R
Text: as §1

[7] = biological target: T7, AncCR (synthetic construct, UniProt Z9R9E8A6B0, S74C/K86Q, form not given); assay: luciferase reporter gene activation (Gal4DBD-LBD); type: cell-based; details: CHO-K1 cells, agonist, one day, triplicate; error is SE
T7 construct: LBD fused to Gal4 DBD in pSG5; CHO-K1 cells with UAS-luciferase
T7 sequence (Z9R9E8A6B0 4-249 S74C/K86Q): T2 sequence (Z9R9E8A6B0 4-249 V46A/S74C/R119H) with A43V, K83Q, H116R
Text: as §1

[8] = biological target: T8, AncCR (synthetic construct, UniProt Z9R9E8A6B0, V46A/R119H, form not given); assay: luciferase reporter gene activation (Gal4DBD-LBD); type: cell-based; details: CHO-K1 cells, agonist, one day, triplicate; error is SE
T8 construct: LBD fused to Gal4 DBD in pSG5; CHO-K1 cells with UAS-luciferase
T8 sequence (Z9R9E8A6B0 4-249 V46A/R119H): T2 sequence (Z9R9E8A6B0 4-249 V46A/S74C/R119H) with C71S
Text: as §1

[9] = biological target: T9, AncCR (synthetic construct, UniProt Z9R9E8A6B0, L4M/S74C, form not given); assay: luciferase reporter gene activation (Gal4DBD-LBD); type: cell-based; details: CHO-K1 cells, agonist, one day, triplicate; error is SE
T9 construct: LBD fused to Gal4 DBD in pSG5; CHO-K1 cells with UAS-luciferase
T9 sequence (Z9R9E8A6B0 4-249 L4M/S74C): T2 sequence (Z9R9E8A6B0 4-249 V46A/S74C/R119H) with L1M, A43V, H116R
Text: as §1

[10] = biological target: T10, AncCR (synthetic construct, UniProt Z9R9E8A6B0, S74C/R119H, form not given); assay: luciferase reporter gene activation (Gal4DBD-LBD); type: cell-based; details: CHO-K1 cells, agonist, one day, triplicate; error is SE
T10 construct: LBD fused to Gal4 DBD in pSG5; CHO-K1 cells with UAS-luciferase
T10 sequence (Z9R9E8A6B0 4-249 S74C/R119H): T2 sequence (Z9R9E8A6B0 4-249 V46A/S74C/R119H) with A43V
Text: as §1

[11] = biological target: T11, AncCR (synthetic construct, UniProt Z9R9E8A6B0, V46A/S74C, form not given); assay: luciferase reporter gene activation (Gal4DBD-LBD); type: cell-based; details: CHO-K1 cells, agonist, one day, triplicate; error is SE
T11 construct: LBD fused to Gal4 DBD in pSG5; CHO-K1 cells with UAS-luciferase
T11 sequence (Z9R9E8A6B0 4-249 V46A/S74C): T2 sequence (Z9R9E8A6B0 4-249 V46A/S74C/R119H) with H116R
Text: as §1

[12] = biological target: T12, AncCR (synthetic construct, UniProt Z9R9E8A6B0, S74C/A110S, form not given); assay: luciferase reporter gene activation (Gal4DBD-LBD); type: cell-based; details: CHO-K1 cells, agonist, one day, triplicate; error is SE
T12 construct: LBD fused to Gal4 DBD in pSG5; CHO-K1 cells with UAS-luciferase
T12 sequence (Z9R9E8A6B0 4-249 S74C/A110S): T2 sequence (Z9R9E8A6B0 4-249 V46A/S74C/R119H) with A43V, A107S, H116R
Text: as §1

`C[C@]12C[C@H](O)[C@H]3[C@@H](CCC4=CC(=O)C[C@H](O)[C@@]43C)[C@@H]1CC[C@@H]2C(=O)CO` [1α-B, 1α-hydroxycorticosterone] showed an EC50 ([1]; read-out: 1α-B log EC50 (converted)) of 2000 nM.

`C[C@]12C[C@H](O)[C@H]3[C@@H](CCC4=CC(=O)CC[C@@]43C)[C@@H]1CC[C@@H]2C(=O)CO` [B, corticosterone] gave an EC50 ([1]; read-out: B log EC50 (converted)) of 28.3 nM.

`C[C@]12CC[C@H]3[C@@H](CCC4=CC(=O)CC[C@@]43C)[C@@H]1CC[C@@H]2C(=O)CO` [DOC, 11-deoxycorticosterone] was tested, and the EC50 ([1]; read-out: DOC log EC50 (converted)) was 305 nM, the “log EC50 ^b” value [2] was −6.418 ± 0.06 log10 M and the “log EC50 ^b” value [3] was −10.170 ± 0.43 log10 M. The “log EC50 ^b” value [4] was −10.870 ± 0.34 log10 M, the “log EC50 ^b” value [5] was −9.773 ± 0.43 log10 M and the “log EC50 ^b” value [6] was −10.690 ± 0.64 log10 M. For the same compound, the “log EC50 ^b” value [7] was −10.330 ± 0.41 log10 M, the “log EC50 ^b” value [8] was −8.387 ± 0.54 log10 M and the “log EC50 ^b” value [9] was −10.250 ± 0.30 log10 M. The “log EC50 ^b” value [10] was −8.812 ± 0.28 log10 M, the “log EC50 ^b” value [11] was −8.443 ± 0.15 log10 M and the “log EC50 ^b” value [12] was −10.350 ± 0.24 log10 M.
